Results reported in patent US8802673B2, “Heterocyclic amine derivatives” (Hoffmann-La Roche Inc, priority 2011, dated 2014).

Experiments:
rat TAAR1 = rat TAAR1 (Rattus norvegicus (Rat), UniProt Q923Y9); experiment: Radioligand binding assay on rat TAAR1; settings: rat TAAR1 (second value of the cell), HEK-293 membranes; read-out: Ki (μM) mouse/rat
Experimental: (§1) Construction of TAAR Expression Plasmids and Stably Transfected Cell Lines
(§2) For the construction of expression plasmids the coding sequences of human, rat and mouse TAAR 1 were amplified from genomic DNA essentially as described by Lindemann et al.. The Expand High Fidelity PCR System (Roche Diagnostics) was used with 1.5 mM Mg^2+ and purified PCR products were cloned into pCR2.1-TOPO cloning vector (Invitrogen) following the instructions of the manufacturer. PCR products were subcloned into the pIRESneo2 vector (BD Clontech, Palo Alto, Calif.), and expression vectors were sequence verified before introduction in cell lines.
(§3) HEK293 cells (ATCC #CRL-1573) were cultured essentially as described by Lindemann et al. (2005). For the generation of stably transfected cell lines HEK293 cells were transfected with the pIRESneo2 expression plasmids containing the TAAR coding sequences (described above) with Lipofectamine 2000 (Invitrogen) according to the instructions of the manufacturer, and 24 hrs post transfection the culture medium was supplemented with 1 mg/ml G418 (Sigma, Buchs, Switzerland). After a culture period of about 10 d clones were isolated, expanded and tested for responsiveness to trace amines (all compounds purchased from Sigma) with the cAMP Biotrak Enzyme immunoassay (EIA) System (Amersham) following the non-acetylation EIA procedure provided by the manufacturer.
Radioligand Binding Assay on Rat TAAR1
Membrane Preparation and Radioligand Binding
(§4) HEK-293 cells stably expressing rat TAAR1 were maintained at 37° C. and 5% CO2 in DMEM high glucose medium, containing fetal calf serum (10%, heat inactivated for 30 min at 56° C.), penicillin/streptomycin (1%), and 375 μg/ml geneticin (Gibco). Cells were released from culture flasks using trypsin/EDTA, harvested, washed twice with ice-cold PBS (without Ca^2+ and Mg^2+), pelleted at 1,000 rpm for 5 min at 4° C., frozen and stored at −80° C. Frozen pellets were suspended in 20 ml HEPES-NaOH (20 mM, pH 7.4) containing 10 mM EDTA and homogenized with a Polytron (PT 6000, Kinematica) at 14,000 rpm for 20 s. The homogenate was centrifuged at 48,000×g for 30 min at 4° C. Subsequently, the supernatant was removed and discarded, and the pellet resuspended in 20 ml HEPES-NaOH (20 mM, pH 7.4) containing 0.1 mM EDTA using the Polytron (20 s at 14,000 rpm). This procedure was repeated and the final pellet resuspended in HEPES-NaOH containing 0.1 mM EDTA and homogenized using the Polytron. Typically, aliquots of 2 ml membrane portions were stored at −80° C. With each new membrane batch the dissociation constant (Kd) was determined via a saturation curve. […] All compounds were tested at a broad range of concentrations (10 pM to 10 μM) in duplicates. […] The 96 deep well plates were incubated for 1 hr at 4° C. Incubations were terminated by rapid filtration through Unifilter-96 plates (Packard Instrument Company) and glass filters GF/C (Perkin Elmer) presoaked for 1 hr in polyethylenimine (0.3%) and washed 3 times with 1 ml of cold binding buffer. After addition of 45 μl of Microscint 40 (PerkinElmer) the Unifilter-96 plate was sealed and after 1 hr the ratioactivity counted using a TopCount Microplate Scintillation Counter (Packard Instrument Company).

mouse TAAR1 = mouse TAAR1 (Mus musculus (Mouse), UniProt Q923Y8); experiment: Radioligand binding assay on mouse TAAR1; settings: mouse TAAR1 (first value of the cell), HEK-293 membranes; read-out: Ki (μM) mouse/rat
Experimental: as §1, §2, §3
Radioligand Binding Assay on Mouse TAAR1
Membrane Preparation and Radioligand Binding.
as §4, with “expressing mouse” for “expressing rat”

rat TAAR1, sequence (Q923Y9 whole entry): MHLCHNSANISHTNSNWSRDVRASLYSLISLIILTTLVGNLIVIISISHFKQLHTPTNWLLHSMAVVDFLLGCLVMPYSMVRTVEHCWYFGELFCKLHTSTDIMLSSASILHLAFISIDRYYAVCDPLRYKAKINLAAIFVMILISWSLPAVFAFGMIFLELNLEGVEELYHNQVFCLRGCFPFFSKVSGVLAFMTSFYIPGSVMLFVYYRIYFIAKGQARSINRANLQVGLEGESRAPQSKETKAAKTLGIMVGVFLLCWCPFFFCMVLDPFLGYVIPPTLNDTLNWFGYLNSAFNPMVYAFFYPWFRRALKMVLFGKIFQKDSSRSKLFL
mouse TAAR1, sequence (Q923Y8 whole entry): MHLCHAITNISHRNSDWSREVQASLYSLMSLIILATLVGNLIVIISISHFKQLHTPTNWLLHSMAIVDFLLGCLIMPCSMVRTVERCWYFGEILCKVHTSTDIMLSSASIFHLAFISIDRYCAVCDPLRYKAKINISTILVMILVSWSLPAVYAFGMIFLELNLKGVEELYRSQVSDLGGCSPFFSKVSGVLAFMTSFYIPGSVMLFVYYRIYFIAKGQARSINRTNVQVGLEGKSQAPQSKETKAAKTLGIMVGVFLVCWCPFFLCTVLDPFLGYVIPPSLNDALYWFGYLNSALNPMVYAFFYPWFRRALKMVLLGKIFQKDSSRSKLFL

| SMILES | Ki (rat TAAR1) | Ki (mouse TAAR1) |
| --- | --- | --- |
| CCc1cnc(Nc2ccc(C3CNCCO3)cc2F)nc1 (racemic) [Example 97, (RS)-5-Ethyl-N-(2-fluoro-4-(morpholin-2-yl)phenyl)pyrimidin-2-amine] | 0.0056 µM | 0.0029 µM |
| CCOc1cnc(Nc2ccc(C3CNCCO3)cc2F)nc1 (racemic) [Example 100, (RS)-(5-Ethoxy-pyrimidin-2-yl)-(2-fluoro-4-morpholin-2-yl-phenyl)-amine] | 0.0164 µM | 0.0053 µM |
| CCCc1cnc(Nc2ccc(C3CNCCO3)cc2F)nc1 (racemic) [Example 101, (RS)-(2-Fluoro-4-morpholin-2-yl-phenyl)-(5-propyl-pyrimidin-2-yl)-amine] | 0.0041 µM | 0.0032 µM |
| Cc1cc(C2CNCCO2)cnc1Nc1ccc(Br)cn1 (racemic) [Example 120, (RS)—N-(5-Bromopyridin-2-yl)-3-methyl-5-(morpholin-2-yl)pyridin-2-amine] | 0.0364 µM | 0.0058 µM |
| Fc1cc(C2CNCCO2)ccc1Nc1ncc(C(F)(F)F)cn1 (racemic) [Example 121, (RS)-(2-Fluoro-4-morpholin-2-yl-phenyl)-(5-trifluoromethyl-pyrimidin-2-yl)-amine] | 0.0096 µM | 0.0058 µM |
| Cn1ccc(Nc2ccc(C3CNCCO3)cc2)n1 (racemic) [Example 140, (RS)-(1-Methyl-1H-pyrazol-3-yl)-(4-morpholin-2-yl-phenyl)-amine] | 5.25 µM | 0.0386 µM |
| Cn1cc(Br)c(Nc2ccc(C3CNCCO3)cc2)n1 (racemic) [Example 143, (RS)-(4-Bromo-1-methyl-1H-pyrazol-3-yl)-(4-morpholin-2-yl-phenyl)-amine] | 0.284 µM | 0.418 µM |
| c1cc(C2CNCCO2)ccc1Nc1ccn(CC2CC2)n1 (racemic) [Example 146, (RS)-(1-Cyclopropylmethyl-1H-pyrazol-3-yl)-(4-morpholin-2-yl-phenyl)-amine] | 0.14 µM | 0.0046 µM |
| FC(F)Cn1ccc(Nc2ccc(C3CNCCO3)cc2)n1 (racemic) [Example 150, (RS)-[1-(2,2-Difluoro-ethyl)-1H-pyrazol-3-yl]-(4-morpholin-2-yl-phenyl)-amine] | 0.149 µM | 0.0134 µM |
| Brc1ccc(Nc2ccc([C@H]3CNCCO3)cc2)nc1 [Example 10, (S)-5-Bromo-N-(4-(morpholin-2-yl)phenyl)pyridin-2-amine] | 0.0337 µM | 0.0015 µM |
| FC(F)(F)c1ccc(Nc2ccc([C@H]3CNCCO3)cc2)nc1 [Example 11, (S)—N-(4-(Morpholin-2-yl)phenyl)-5-(trifluoromethyl)pyridin-2-amine] | 0.0233 µM | 0.0015 µM |
| COc1cnc(Nc2ccc([C@H]3CNCCO3)cc2)nc1 [Example 12, (5-Methoxy-pyrimidin-2-yl)-((S)-4-morpholin-2-yl-phenyl)-amine] | 0.259 µM | 0.0055 µM |
| c1ccc(CCNc2ccc([C@H]3CNCCO3)cc2)cc1 [Example 13, ((S)-4-Morpholin-2-yl-phenyl)-phenethyl-amine] | 0.108 µM | 0.0266 µM |
| Fc1cnc(Nc2ccc([C@H]3CNCCO3)cc2)nc1 [Example 14, (5-Fluoro-pyrimidin-2-yl)-((S)-4-morpholin-2-yl-phenyl)-amine] | 0.504 µM | 0.0122 µM |
| CCc1cnc(Nc2ccc([C@H]3CNCCO3)cc2)nc1 [Example 15, (5-Ethyl-pyrimidin-2-yl)-((S)-4-morpholin-2-yl-phenyl)-amine] | 0.0466 µM | 0.0028 µM |
| N#Cc1cnc(Nc2ccc([C@H]3CNCCO3)cc2)nc1 [Example 16, 2-((S)-4-Morpholin-2-yl-phenylamino)-pyrimidine-5-carbonitrile] | 0.448 µM | 0.0276 µM |
| c1cc([C@H]2CNCCO2)ccc1Nc1ncc(C2CC2)cn1 [Example 17, (5-Cyclopropyl-pyrimidin-2-yl)-((S)-4-morpholin-2-yl-phenyl)-amine] | 0.0131 µM | 0.0017 µM |
| Cc1cnc(Nc2ccc([C@H]3CNCCO3)cc2)nc1 [Example 18, (5-Methyl-pyrimidin-2-yl)-((S)-4-morpholin-2-yl-phenyl)-amine] | 0.313 µM | 0.0054 µM |
| FC(F)(F)c1cnc(Nc2ccc([C@H]3CNCCO3)cc2)nc1 [Example 19, ((S)-4-Morpholin-2-yl-phenyl)-(5-trifluoromethyl-pyrimidin-2-yl)-amine] | 0.0236 µM | 0.0056 µM |
| COc1ccc(CNc2ccc([C@H]3CNCCO3)cc2)cc1 [Example 20, (4-Methoxy-benzyl)-((S)-4-morpholin-2-yl-phenyl)-amine] | 0.764 µM | 0.0453 µM |
| CCCc1cnc(Nc2ccc([C@H]3CNCCO3)cc2)nc1 [Example 21, ((S)-4-Morpholin-2-yl-phenyl)-(5-propyl-pyrimidin-2-yl)-amine] | 0.0245 µM | 0.002 µM |
| Cc1ccc(CNc2ccc([C@H]3CNCCO3)cc2)cc1 [Example 22, (4-Methyl-benzyl)-((S)-4-morpholin-2-yl-phenyl)-amine] | 0.468 µM | 0.0375 µM |
| N#Cc1ccc(CNc2ccc([C@H]3CNCCO3)cc2)cc1 [Example 23, 4-[((S)-4-Morpholin-2-yl-phenylamino)-methyl]-benzonitrile] | 1.64 µM | 0.0514 µM |
| FC(F)(F)c1ccc(CNc2ccc([C@H]3CNCCO3)cc2)cc1 [Example 24, ((S)-4-Morpholin-2-yl-phenyl)-(4-trifluoromethyl-benzyl)-amine] | 0.149 µM | 0.0119 µM |
| FC(F)(F)Oc1ccc(CNc2ccc([C@H]3CNCCO3)cc2)cc1 [Example 25, ((S)-4-Morpholin-2-yl-phenyl)-(4-trifluoromethoxy-benzyl)-amine] | 0.0705 µM | 0.0124 µM |
| Clc1ccc2nc(Nc3ccc([C@H]4CNCCO4)cc3)sc2c1 [Example 26, (6-Chloro-benzothiazol-2-yl)-((S)-4-morpholin-2-yl-phenyl)-amine] | 0.0083 µM | 0.002 µM |
| Brc1ccc(CNc2ccc([C@H]3CNCCO3)cc2)nc1 [Example 27, (5-Bromo-pyridin-2-ylmethyl)-((S)-4-morpholin-2-yl-phenyl)-amine] | 0.808 µM | 0.0438 µM |
| COc1cccc(CNc2ccc([C@H]3CNCCO3)cc2)n1 [Example 28, (6-Methoxy-pyridin-2-ylmethyl)-((S)-4-morpholin-2-yl-phenyl)-amine] | 0.561 µM | 0.276 µM |
| CCOc1cnc(Nc2ccc([C@H]3CNCCO3)cc2)nc1 [Example 29, (5-Ethoxy-pyrimidin-2-yl)-((S)-4-morpholin-2-yl-phenyl)-amine] | 0.155 µM | 0.0042 µM |
